Source: US10266527B2, “T-box riboswitch-binding anti-bacterial compounds” (THE RESEARCH FOUNDATION FOR THE STATE UNIVERSITY OF NEW YORK, priority 2013, dated 2019)
In brackets after ≈: the same amount, converted by molar mass. Read-outs that look alike come from different tables or passages of the source. Values belong to the compound of their own block, whether it stands above or below them.

Tests used:
Assay type in all cases: cell-based
S. aureus = test: Disc diffusion assay (DDA) of PKZ6 and PKZ18 analogs with S. aureus; conditions: Table 4, 150 μg/ml, ✓ = zone of inhibition observed
Excerpt: (§1) The identity and purity of both PKZ 6 and 18 was confirmed by mass spectroscopy. Forty commercially available compounds chosen on the basis of initial in silico selections and similarity to our two hits were screened by disc diffusion assay (DDA) to determine their relative antibacterial activity with S. aureus. […] These 14 compounds were further evaluated by minimum inhibitory concentration assays (MIC)^41,42, and minimum bactericidal assays (MBC)^41 to confirm antibacterial activity, determine the concentration at which S. aureus growth is inhibited in liquid culture (MIC) and if they are acting as bacteriostatic or bactericidal agents (MBC). […] Representative embodiments are shown below.
All compounds were tested at a concentration of 150 μg/ml.

B. subtilis = test: Disc diffusion assay, growth inhibition of B. subtilis; conditions: Table 1, ✓ = zone of inhibition observed
Excerpt: The same 20 top binders and 8 additional predicted to interact with the cleft of the tyrRS mRNA Specifier Loop were selected from subsequent docking and preliminary fluorescence data.

S. aureus ATCC 29213 [1] = test: Broth microdilution MIC
Excerpt: as §1
(§2) Broth microdilution assays^77, 78 were performed with B. subtilis, and S. aureus to determine the lowest compound concentration inhibiting visible growth, i.e., minimum inhibitory concentration (MIC) of the 4 original compounds. […] The insolubility of the fourth compound may account for its lack of antibacterial activity. […] The MICs of each compound are moderate.
(§3) Strains were grown on trypticase soy agar (TSA) with 5% sheep blood at 37° C. for 24 hours. Five isolated colonies were used to inoculate 5 mL cation-adjusted Mueller-Hinton broth (CAMHB) contained in a 50 mL centrifuge tube. The resulting culture was incubated shaking at 200 rpm for 3 hours at 37° C. and then diluted in CAMHB until its turbidity matched that of a 0.5 McFarland standard (OD625 0.08-0.10). After the culture had been standardized against a 0.5 McFarland standard, it was diluted 1:10 in CAMHB and then 5 μL of this dilution was added to the appropriate wells of a 96-well, flat-bottomed tissue culture plate in which each row contained a twofold dilution series of a particular compound ranging in concentration from 0.25 μg/mL to 512 μg/mL. Each plate also included a sterility control well containing CAMHB to which standardized inoculum was not added and a growth control well containing CAMHB to which 5 μL standardized inoculum was added. […] With the exception of the sterility control well, all wells were inoculated within 15 minutes of inoculum preparation to ensure that the starting concentration of bacteria in each well was approximately 5×10^5 CFU/m L. A Tecan Sunrise microplate absorbance reader was used to measure the OD620 of each well before and after 20 h incubation at 37° C. MIC values were recorded as the lowest compound concentration at which no visible growth was observed after this incubation period.

E. coli ATCC 25922 [2] = test: MBC determination
Description: (§4) Following 24 h incubation of these subcultures at 37° C., MBC values were recorded as the lowest compound concentration at which no viable colonies were observed.

B. cereus ATCC 7064 [3] = test: MBC determination; conditions: N/O = not observed
Description: as §4

E. faecalis ATCC 29212 [4] = test: MBC determination; conditions: N/O = not observed
Description: as §4

B. subtilis BGSC 1A1 [5] = test: MBC determination; conditions: IND = indeterminate
Description: as §4

B. subtilis BGSC 1A1 [6] = test: Broth microdilution MIC
Description: as §2, §3

E. faecalis ATCC 29212 [7] = test: Broth microdilution MIC; conditions: Enterococcus faecalis, ATCC29212, N/O = not observed, read-out: MIC
E. coli ATCC 25922 [8] = test: Broth microdilution MIC (Gram negative specificity control); conditions: for MIC: Escherichia coli, ATCC25922
[9] = tested on: Human Embryonic Kidney (HEK293) cells; test: Toxicity on a monolayer of HEK293 cells
B. cereus ATCC 7064 [10] = test: Broth microdilution MIC; conditions: Bacillus cereus, ATCC7064; B. cereus ATCC 7064; read-out: MIC
S. pneumoniae ATCC 49619 = test: Broth microdilution MIC; conditions: Streptococcus pneumoniae, ATCC49619; S. pneumoniae ATCC 49619; read-out: MIC
P. aeruginosa ATCC 27853 = test: Broth microdilution MIC; conditions: N/O = not observed
S. aureus ATCC 29213 [11] = test: MBC determination; conditions: Table 5 analogs, triplicate experiments, N/O = not observed at concentrations tested (512-0.25 μg/mL)
Excerpt: as §1, §4

[12] = Staphylococcus aureus, ATCC29213, Table 5 analogs, triplicate experiments, N/O = not observed at concentrations tested (512-0.25 μg/mL), read-out: S. aureus MIC

Structure (SMILES): NCCNC(=O)c1c(O)c2cccc3c2n(c1=O)CCC3 [Compound 0615]
ZOI observed (S. aureus): ✓

Structure (SMILES): CCn1c(=O)c(C(=O)NCCN2CCNCC2)c(O)c2ccccc21 [Compound 7]
ZOI observed (B. subtilis): ✓
MIC (S. aureus ATCC 29213 [1]; S. aureus ATCC 29213, N/O = not observed): N/O (N/D)
MBC (E. coli ATCC 25922 [2]; Escherichia coli, ATCC25922, E. coli ATCC 25922, read-out: MBC): 512 mg/L (≈ 1490 µM)
MBC (B. cereus ATCC 7064 [3]): N/O
MBC (E. faecalis ATCC 29212 [4]): N/O
MBC (B. subtilis BGSC 1A1 [5]): IND
antibacterial activity against B. subtilis (in words) (B. subtilis BGSC 1A1 [6]): active
MIC (B. subtilis BGSC 1A1 [6]; Bacillus subtilis, BGSC1A1, B. subtilis BGSC 1A1, 20 h at 37° C., read-out: MIC): 32 mg/L (≈ 92.9 µM)
MIC (E. faecalis ATCC 29212 [7]): 512 mg/L (≈ 1490 µM)
antibacterial activity against E. coli (in words) (E. coli ATCC 25922 [8]; E. coli negative control without T-box riboswitch): moderate antibacterial activity
MIC (E. coli ATCC 25922 [8]; E. coli ATCC 25922, N/O = not observed, read-out: MIC): 512 mg/L (≈ 1490 µM)
16 hr post exposure % Live ([9]; 32 ug/ml): 100%
16 hr post exposure Morphology ([9]; 32 ug/ml): Normal
24 hr post exposure % Confluent ([9]; 32 ug/ml): 90%
24 hr post exposure % Live ([9]; 32 ug/ml): 90%
24 hr post exposure Morphology ([9]; 32 ug/ml): Normal
16 hr post exposure % Live ([9]; 64 ug/ml): 80%
16 hr post exposure Morphology ([9]; 64 ug/ml): Mix of Normal and Detached
24 hr post exposure % Confluent ([9]; 64 ug/ml): 80%
24 hr post exposure % Live ([9]; 64 ug/ml): 75%
24 hr post exposure Morphology ([9]; 64 ug/ml): Mix of Normal and Detached
16 hr post exposure % Live ([9]; 128 ug/ml): 0%
16 hr post exposure Morphology ([9]; 128 ug/ml): Rounded and Detached
24 hr post exposure % Confluent ([9]; 128 ug/ml): 0%
24 hr post exposure % Live ([9]; 128 ug/ml): 0%
24 hr post exposure Morphology ([9]; 128 ug/ml): Rounded and Detached
MIC (B. cereus ATCC 7064 [10]): 512 mg/L (≈ 1490 µM)
MIC (S. pneumoniae ATCC 49619): 128 mg/L (≈ 372 µM)
MIC (P. aeruginosa ATCC 27853): N/O (N/D)

Structure (SMILES): CCCn1c(=O)c(C(=O)NCCN2CCNCC2)c(O)c2ccccc21 [Compound 0610]
ZOI observed (S. aureus): ✓

MIC (S. aureus ATCC 29213 [1]; [12]): 256 mg/L (≈ 666 µM)
MIC (E. coli ATCC 25922 [8]; Table 5 analogs, triplicate experiments, N/O = not observed at concentrations tested (512-0.25 μg/mL), read-out: E. coli MIC): 512 mg/L (≈ 1330 µM)
Structure (SMILES): CC1=C(C)CC(C(=O)Nc2nc(-c3ccc(C)cc3)c(C)s2)C(C(=O)O)C1 (centres unmarked) [Compound 1810]
E. coli (MBC) (E. coli ATCC 25922 [2]; Table 5 analogs, triplicate experiments, N/O = not observed at concentrations tested (512-0.25 μg/mL)): N/O
S. aureus (MBC) (S. aureus ATCC 29213 [11]): N/O
ZOI observed (S. aureus): ✓

Structure (SMILES): O=C(NCCNCCO)c1c(O)c2cccc3c2n(c1=O)CCC3 [Compound 0609]
ZOI observed (S. aureus): ✓

MIC (S. aureus ATCC 29213 [1]; [12]): 128 mg/L (≈ 338 µM)
Structure (SMILES): O=C(O)C1C2CCC(C2)C1C(=O)Nc1nc(-c2ccc(F)cc2F)cs1 (centres unmarked) [Compound 1819]
MBC (S. aureus ATCC 29213 [11]; Staphylococcus aureus, ATCC29213, read-out: S. aureus (MBC)): 512 mg/L (≈ 1350 µM)
ZOI observed (S. aureus): ✓

Structure (SMILES): O=c1cc(O)c2c(=O)n3c4c(cccc4c2o1)CCC3 [Compound 0611]
ZOI observed (S. aureus): ✓

MIC (S. aureus ATCC 29213 [1]; [12]): 64 mg/L (≈ 150 µM)
Structure (SMILES): C[C@@H]1CC[C@@H](C)[C@H](C(=O)Nc2nc(-c3ccc(Cl)cc3Cl)cs2)C1C(=O)O (some centres unmarked) [Compound 1820]
S. aureus (MBC) (S. aureus ATCC 29213 [11]): N/O
ZOI observed (S. aureus): ✓
